In patent publication US10441591B2, “Applications for etonogestrel in preparing anti-prostate cancer products” (SHANGHAI JIAO TONG UNIVERSITY, priority 2015, dated 2019):

Experiments:
Type in all cases: cell-based
[1] = system: NCI-H1703 human lung squamous carcinoma cells; experiment: CellTiter-Glo luminescent cell viability assay, NCI-H1703; settings: 72 hours
[2] = system: DU-145 prostate cancer cells; experiment: CellTiter-Glo luminescent cell viability assay, DU-145
Procedure: In example 1, CELLTITER-GLO was used to test etonogestrel against prostate cancer. DU-145 cells were handled as described above, and a DU-145 96-well cell culture plate was obtained. The complete medium for DU-145 cells was RPMI-1640 (a live product), Cat# A1049101, with a cells/well density of 4000. 2. The drug analyte etonogestrel was prepared and administered (200× final concentration): a) DMSO was used to dilute the analyte etonogestrel to 20 mM for use. 79 μL of the 20 mM analyte prepared in step a) was added to the first well in the first row of the dilution plate, and then 54 μL of DMSO solution was added to the second through ninth wells of the first row. 25 μL of solution was aspirated from the first to the second well, and after mixing well 25 μL of solution was aspirated from the second to the third well, and this was repeated until the 9th well in order to ensure that 3.16 dilution of the medication would be carried out one-by-one. b) 95 μl of cell-specific complete medium was added to the working plate, each medication to 9 wells. […] The final concentrations (μM) of the analyte drug in wells 2-10 in FIG. 1 are, in order: 100, 31.64557, 10.01442, 3.16912, 1.002886, 0.317369, 0.100433, 0.031783, 0.010058; a) Before testing, the DU-145 96-well drug screening plate described in 3 above was stabilized to room temperature for 20-30 minutes. c) 100 μl of CellTiter-Glo reagent (prepared as described in 1 above) was added to all drug screening plates and mixed evenly. d) It was thoroughly oscillated in a 96-well microplate oscillator for 2 minutes to allow the cells to undergo full lysis. e) It was stored away from light at room temperature for 15 minutes before carrying out luminescent signal detection to ensure signal stability. f) An EnSpire multi-function plate reader was used at […] to read the luminescent signals. g) Data was processed and analyzed.

[3] = system: NCI-H2122 human lung cancer cells; experiment: CellTiter-Glo luminescent cell viability assay, NCI-H2122; settings: 72 hours

IC50 [1]: ≥ 100 µM
IC50 ([2]; Homo sapiens, DU-145 cells, 72 hours, CellTiter-Glo): 16 µM
EC50 ([2]; Homo sapiens, DU-145 cells, FIG. 2 dose-response curve, 72 hours): 11.7 µM
IC50 [3]: ≥ 100 µM
Structure (SMILES): C#C[C@]1(O)CC[C@H]2[C@@H]3CCC4=CC(=O)CC[C@@H]4[C@H]3C(=C)C[C@@]21CC [etonogestrel]
inhibitory effect on the proliferation of prostate cancer cells ([2]; DU-145 compared with NCI-H1703 and NCI-H2122): specific inhibitory effect on the proliferation of prostate cancer cells
